Experimental data from patent EP0245209A1, “Milbemycin derivatives, their preparation and their use as pesticides” (CIBA-GEIGY AG, priority 1986, dated 1987).

Tests used:
Type in all cases: in vivo
Aedes aegypti = experiment: Larvicidal action against Aedes aegypti (larvae in water); settings: niedrigere Konzentrationen (below 3 ppm)
Description: Beispiel B.10: Larvizidwirkung gegen Aedes aegypti
Auf die Oberfläche von 150 ml Wasser, das sich in einem Behälter befindet, wird soviel einer 0,1 %igen acetonischen Lösung des Wirkstoffes pipettiert, dass Konzentrationen von wahlweise 12,5 ppm, 3,3 ppm und 1,6 ppm erhalten werden. Nach Verdunsten des Acetons wird der Behälter mit ca. 30-40 3 Tage alten Aedes-Larven beschickt. Nach 1, 2 und 5 Tagen wird die Mortalität geprüft.

[1] = test system: Ll-Larven von Lucilia cuprina; experiment: Action against L1 larvae of Lucilia cuprina (as B.2); settings: niedrigere Konzentrationen (below 100 ppm)
Description: (§1) 1 ml einer wässrigen Suspension der zu prüfenden Aktivsubstanz werden so mit 3 ml eines speziellen Larvenzuchtmediums bei ca. 50°C vermischt, dass ein Homogenisat von wahlweise 250 ppm oder 100 ppm Wirkstoffgehalt entsteht. In jede Reagenzglas-Probe werden ca. 30 Lucilia-Larven (L1) eingesetzt. Nach 4 Tagen wird die Mortalitätsrate bestimmt. Die Verbindungen aus den Herstellungsbeispielen zeigen bei 250 ppm eine Wirkung von 100 %, wobei Verbindungen aus den Herstellungsbeispielen diese Wirkung auch noch bei der reduzierten Wirkstoffkonzentration von 100 ppm erzielen, wie beispielsweise die Verbindungen Nr. 1.10, 1.18, 1.26, 1.34, 1.39, 1.43, 1.46, 1.54, 1.58, 1.62, 1.82, 1.90 und 1.114.
Beispiel B.3: Wirkung gegen Ll-Larven von Lucilia cuprina
Der Test wird wie unter B.2 beschrieben durchgeführt, jedoch mit Larven von Lucilia cuprina. […] Bei manchen Verbindungen wird dieser Effekt bereits mit niedrigeren Konzentrationen erreicht, beispielsweise mit den Verbindungen Nr. 1.34, 1.90 und 1.114.

[2] = test system: LI-Larven von Lucilia sericata; experiment: Action against L1 larvae of Lucilia sericata (larval culture medium, mortality); settings: reduced concentration of 100 ppm, after 4 days; for mortality at 100 ppm: Lucilia sericata, 96 h, read-out: Wirkung (Mortalitätsrate)
Description: Beispiel B.2: Wirkung gegen LI-Larven von Lucilia sericata
as §1

Spodoptera littoralis = experiment: Insecticidal stomach-poison action on Spodoptera littoralis (sprayed cotton plants); settings: niedrigere Konzentrationen (below 12,5 ppm); L1 larvae
Description: Beispiel B.6: Insektizide Frassgift-Wirkung bei Spodoptera littoralis
Eingetopfte Baumwollpflanzen im 5-Blatt-Stadium werden mit einer acetonisch/wässrigen Versuchslösung besprüht, die 3, 12,5 oder 50 ppm der zu prüfenden Verbindung enthält.
Nach dem Antrocknen des Belags werden die Pflanzen mit ca. 30 Larven (LI-Stadium) von Spodoptera littoralis besetzt. Pro Versuchsverbindung und pro Test-Spezies verwendet man zwei Pflanzen. Der Versuch wird bei ca. 24°C und 60 % relativer Luftfeuchtigkeit durchgeführt. Auswertungen und Zwischenauswertungen auf moribunde Tiere, Wachstum und Larven und Frassschäden erfolgen nach 24 Stunden, 48 Stunden und 72 Stunden.

[3] = test system: OP-sensible Tetranychus urticae; experiment: Action against plant-damaging acarids, OP-sensitive Tetranychus urticae (sprayed bean plants); settings: niedrigere Konzentrationen (below 1,6 ppm); after seven days
Description: Beispiel B.7: Wirkung gegen pflanzenschädigende Akariden OP-sensible Tetranychus urticae
Die Primärblätter von Bohnenpflanzen (Phaseolus vulgaris) werden 16 Stunden vor dem Versuch mit einem durch T. urticae infestierten, aus einer Massenzucht stammenden Blattstück belegt. […] Die Temperatur in der Gewächshauskabine beträgt ca. 25°C.
Nach sieben Tagen wird unter dem Binokular auf Prozentsatz mobiler Stadien (Adulte und Nymphen) und auf vorhandene Eier ausgewertet.

Meloidogyne incognita = experiment: Soil nematicidal action against Meloidogyne incognita (tomato plants, root-knot index); settings: after 4 weeks
Description: Beispiel B.4: Bodennematizide Wirkung gegen Meloidogyne incognita
(§2) Eier von Meloidogyne incognita werden in Sand eingemischt. Dieses Gemisch wird dann in 200 ml fassende Tontöpfe eingebracht (5000 Eier pro Topf). Am gleichen Tag wird pro Topf eine 3 Wochen alte Tomatenpflanze gepflanzt und der aus 50 %-igem Emulsionskonzentrat formulierte Wirkstoff mittels Druckapplikation in die Töpfe hineingegeben. Die eingetopften Pflanzen werden nun bei einer Temperatur von 26!1°C und einer relativen Luftfeuchtigkeit von 60 % in einem Gewächshaus aufgestellt. Nach Ablauf von 4 Wochen erfolgt eine Evaluierung durch Untersuchung der Pflanzen auf Wurzelgallbildung nach dem sogenannten Wurzelgall-Index ("Knot Index").

Caenorhabditis elegans = experiment: Soil nematicidal action against Caenorhabditis elegans (as B.4); settings: test as B.4
Description: as §2
Beispiel B.5: Bodennematizide Wirkung gegen Caenorhabditis elegans
Der Test wird wie unter B.4 beschrieben durchgeführt, jedoch mit Caenorhabditis elegans. Die Verbindungn der Herstellungsbeispiele zeigen in diesem Test eine gute Wirksamkeit. Um eine fast vollständige Hemmung der Reproduktion zu erreichen, genügen bei manchen Verbindungen Konzentrationen von 1 ppm und weniger, wie beispielsweise bei den Verbindungen Nr. 1.39, 1.70 und 1.90 und vor allem Nr. 1.2, 1.3, 1.26, 1.43 und 1.66.

Dermanyssus gallinae = experiment: Miticidal action against Dermanyssus gallinae (contact test in glass vessel, mortality); settings: geringere Wirkstoffkonzentrationen (below 100 ppm); observed three days; 4320 min
Description: Beispiel B.1: Milbizide Wirkung gegen Dermanyssus gallinae
2 bis 3 ml einer Testlösung (250, 100 und 10 ppm Aktivsubstanz) werden in einen nach oben offenen Glasbehälter gegeben und ca. 200 Milben in unterschiedlichen Entwicklungsstadien in diesen Behälter eingesetzt. Der Glasbehälter wird mit einem Wattebausch verschlossen und 10 Minuten gleichmässig, bis zur vollständigen [benetzung der Milben geschüttelt. Danach wird der Behälter umgekehrt hingestellt, bis die überschüssige Testlösung von der Watte aufgesogen ist. Der Behälter wird erneut gekehrt und die behandelten Zecken zur Evaluierung der Wirksamkeit der Testsubstanzen drei Tage unter Laborbedingungen beobachtet, wobei die Mortalität als Massstab für Wirksamkeit herangezogen wird.

Aphis craccivora = experiment: Contact action on Aphis craccivora (sprayed pea seedlings); settings: niedrigere Konzentrationen (below 25 ppm); after 3 days
Excerpt: Beispiel B.9: Kontaktwirkung auf Aphis craccivora
Erbsenkeimlinge, die mit sämtlichen Entwicklungsstadien der Laus infiziert sind, werden mit einer aus einem Emulsionskonzentrat hergestellten Wirkstofflösung besprüht, die wahlweise 50 ppm, 25 ppm oder 12,5 ppm Wirkstoff enthält. Nach 3 Tagen wird auf mehr als 80 % tote bzw. abgefallene Blattläuse ausgewertet. Nur bei dieser Wirkungshöhe wird ein Präparat als wirksam eingestuft.

Abtötung (Aphis craccivora) | Compound | Abtötung sämtlicher Larven (Aedes aegypti) | Abtötung (Spodoptera littoralis) | Abtötung [3] | Wirkung (Mortalität) (Dermanyssus gallinae) | mortality at 100 ppm [2] | further results
 | 13ß-(9-Fluorenyl-methoxy)-carbonyloxy-milbemycin A4 [1.114] | vollständige Abtötung |  |  |  |  | Vernichtung des Schädlings [1]: vollständige Vernichtung; Wirkung (Mortalitätsrate) [2]: 100%
 | 13β-(Cyclohexyloxycarbonyloxy)-milbemycin A4 [1.82] | vollständige Abtötung | vollständige Abtötung | vollständige Abtötung |  |  | Wirkung (Mortalitätsrate) [2]: 100%
 | 13β-([-]-Menthyloxy)-carbonyloxy-milbemycin A4 [1.90] | vollständige Abtötung |  |  |  |  | Konzentration für fast vollständige Hemmung der Reproduktion (Meloidogyne incognita): ≤ 1 ppm; Vernichtung des Schädlings [1]: vollständige Vernichtung; Wirkung (Mortalitätsrate) [2]: 100%; Konzentration für fast vollständige Hemmung der Reproduktion (Caenorhabditis elegans): ≤ 1 ppm
100% | CC[C@H]1O[C@]2(CC[C@@H]1C)C[C@@H]1C[C@@H](C/C=C(\C)[C@H](OC(=O)OC)[C@@H](C)/C=C/C=C3\CO[C@@H]4[C@H](O)C(C)=C[C@@H](C(=O)O1)[C@]34O)O2 [1.2, 13ß-(Methoxycarbonyloxy)-milbemycin A4] |  |  |  | 100% |  | 
100% | COC(=O)O[C@H]1/C(C)=C/C[C@@H]2C[C@@H](C[C@]3(CC[C@H](C)[C@@H](C(C)C)O3)O2)OC(=O)[C@@H]2C=C(C)[C@@H](O)[C@H]3OC/C(=C\C=C\[C@@H]1C)[C@]32O [1.3, 13ß-(Methoxycarbonyloxy)-milbemycin D] |  | vollständige Abtötung | vollständige Abtötung | 100% |  | 
100% | CC[C@H]1O[C@]2(CC[C@@H]1C)C[C@@H]1C[C@@H](C/C=C(\C)[C@H](OC(=O)OC(C)C)[C@@H](C)/C=C/C=C3\CO[C@@H]4[C@H](O)C(C)=C[C@@H](C(=O)O1)[C@]34O)O2 [1.10, 13ß-Isopropyloxycarbonyloxy-milbemycin A4] | vollständige Abtötung | vollständige Abtötung | vollständige Abtötung | 100% | 100% | 
 | CC[C@H]1O[C@]2(CC[C@@H]1C)C[C@@H]1C[C@@H](C/C=C(\C)[C@H](OC(=O)OCCBr)[C@@H](C)/C=C/C=C3\CO[C@@H]4[C@H](O)C(C)=C[C@@H](C(=O)O1)[C@]34O)O2 [1.18, 13ß-(2-Bromäthoxy)-carbonyloxy-milbemycin A4] |  |  |  | 100% | 100% | 
 | CC[C@H]1O[C@]2(CC[C@@H]1C)C[C@@H]1C[C@@H](C/C=C(\C)[C@H](OC(=O)OCC(Cl)(Cl)Cl)[C@@H](C)/C=C/C=C3\CO[C@@H]4[C@H](O)C(C)=C[C@@H](C(=O)O1)[C@]34O)O2 [1.26, 13ß-[(2,2,2-Trichlorethoxy)-carbonyloxy]-milbemycin A4] | vollständige Abtötung | vollständige Abtötung |  |  | 100% | 
100% | CC[C@H]1O[C@]2(CC[C@@H]1C)C[C@@H]1C[C@@H](C/C=C(\C)[C@H](OC(=O)OC(C)(C)C(Cl)(Cl)Cl)[C@@H](C)/C=C/C=C3\CO[C@@H]4[C@H](O)C(C)=C[C@@H](C(=O)O1)[C@]34O)O2 [1.34, 13ß-[(1,1-Dimethyl-2,2,2-trichlorethoxy)-carbonyloxy]-milbemycin A4] | vollständige Abtötung | vollständige Abtötung | vollständige Abtötung |  | 100% | Vernichtung des Schädlings [1]: vollständige Vernichtung
100% | C=COC(=O)O[C@H]1/C(C)=C/C[C@@H]2C[C@@H](C[C@]3(CC[C@H](C)[C@@H](C(C)C)O3)O2)OC(=O)[C@@H]2C=C(C)[C@@H](O)[C@H]3OC/C(=C\C=C\[C@@H]1C)[C@]32O [1.39, 13ß-(Vinyloxycarbonyloxy)-milbemycin D] |  |  |  | 100% | 100% | 
100% | C=CCOC(=O)O[C@H]1/C(C)=C/C[C@@H]2C[C@@H](C[C@]3(CC[C@H](C)[C@@H](C(C)C)O3)O2)OC(=O)[C@@H]2C=C(C)[C@@H](O)[C@H]3OC/C(=C\C=C\[C@@H]1C)[C@]32O [1.43, 13β-(Allyloxycarbonyloxy)-milbemycin D] |  |  |  | 100% | 100% | 
 | CC[C@H]1O[C@]2(CC[C@@H]1C)C[C@@H]1C[C@@H](C/C=C(\C)[C@H](OC(=O)OCc3ccccc3)[C@@H](C)/C=C/C=C3\CO[C@@H]4[C@H](O)C(C)=C[C@@H](C(=O)O1)[C@]34O)O2 [1.46, 13β-Benzyloxycarbonyloxy-milbemycin A4] |  |  |  | 100% | 100% | 
100% | CC[C@H]1O[C@]2(CC[C@@H]1C)C[C@@H]1C[C@@H](C/C=C(\C)[C@H](OC(=O)Oc3ccccc3)[C@@H](C)/C=C/C=C3\CO[C@@H]4[C@H](O)C(C)=C[C@@H](C(=O)O1)[C@]34O)O2 [1.54, 13ß-Phenoxycarbonyloxy-milbemycin A4] | vollständige Abtötung | vollständige Abtötung |  |  | 100% | 
 | CC[C@H]1O[C@]2(CC[C@@H]1C)C[C@@H]1C[C@@H](C/C=C(\C)[C@H](OC(=O)Oc3ccc([N+](=O)[O-])cc3)[C@@H](C)/C=C/C=C3\CO[C@@H]4[C@H](O)C(C)=C[C@@H](C(=O)O1)[C@]34O)O2 [1.58, 13ß-(4-Nitrophenoxy)-carbonyloxy-milbemycin A4] | vollständige Abtötung |  |  |  | 100% | 
 | CC[C@H]1O[C@]2(CC[C@@H]1C)C[C@@H]1C[C@@H](C/C=C(\C)[C@H](OC(=O)Oc3ccc(C(=O)OC)cc3)[C@@H](C)/C=C/C=C3\CO[C@@H]4[C@H](O)C(C)=C[C@@H](C(=O)O1)[C@]34O)O2 [1.62, 13ß-(4-Methoxycarbonylphenoxy)-carbonyloxy-milbemycin A4] | vollständige Abtötung |  |  |  | 100% | 
 | CC[C@H]1O[C@]2(CC[C@@H]1C)C[C@@H]1C[C@@H](C/C=C(\C)[C@H](OC(=O)OCC(Cl)(Cl)C(F)(F)F)[C@@H](C)/C=C/C=C3\CO[C@@H]4[C@H](O)C(C)=C[C@@H](C(=O)O1)[C@]34O)O2 [1.98, 13ß-(3,3,3-Trifluor-2,2-dichlor-propyloxy)-carbonyloxy-milbemycin A4] | vollständige Abtötung | vollständige Abtötung | vollständige Abtötung |  |  | 
